Laboratory results from US11254644B2, “Inhibitors of alpha-amino-beta-carboxymuconic acid semialdehyde decarboxylase” (TES Pharma S.r.l., priority 2014, dated 2022).

Tests used:
hACMSD (ACMSD1) = hACMSD (ACMSD1) (Homo sapiens (Human), UniProt Q8TDX5); assay: Determination of ACMSD1 inhibition, spectrophotometrical in vitro assay; type: biochemical; conditions: HAA concentration of 10 μM
Protocol: The activity of compounds as inhibitors of ACMSD1 is determined in a spectrophotometrical in vitro assay. The pre-assay mixture is incubated and a compound of Formula (I), Formula (Ia), Formula (Ib), Formula (II), or Formula (III), or a pharmaceutically acceptable salt thereof, and ACMSD1 solution is then added. The effect of ACMS concentration on the enzyme activity is investigated by varying 3-hydroxyanthranilic acid (3OH-HA) concentration in the pre-assay mixture. Kinetic parameters are calculated from the initial velocity data using a Lineweaver-Burk plot.
The activity of compounds 1-19 and 21-23 as inhibitors of ACMSD1 was determined by measuring the conversion of 3OH-Anthranilic Acid into product (i.e., ACMS) in a spectrophotometrical in vitro assay.
The pre-assay mixture consisting of 3-hydroxyanthranilic acid (3OH-HA), 3-hydroxyanthranilic acid, 3,4-diOxygenase (HAO), and a dialyzed crude extract of E. coli BL21 (DE3) cells expressing the recombinant enzyme, was incubated at 25° C. with monitoring of the increase in absorbance at 360 nm due to the formation of ACMS from 3OH-HA. After the reaction was completed within ˜2 mins, an aliquot of ACMSD1 solution (prepared and purified from Pichia Pastoris overexpressing the recombinant enzyme) was added, and the decrease in absorbance at 360 nm was followed at 15 second intervals. The effect of ACMS concentration on the enzyme activity was investigated by varying 3OH-HA concentration from 2 to 20 μM. Kinetic parameters were calculated from the initial velocity data by using the Lineweaver-Burk plot.
The rate of the decrease in absorbance caused by ACMSD1 was calculated by subtracting that of the control reaction mixture without ACMSD from that described above. One unit of ACMSD activity was indicated as the amount of enzyme that converts 1 mmol of ACMS per minute at 25° C. The absence or a reduction of ACMSD1 activity (e.g., by using ACMSD inhibitors) results in a slow ACMS-spontaneous degradation (i.e., cyclization to form quinolic acid).
The enzymatic activity was determined at a HAA concentration of 10 μM in the presence of the compounds in Table 1 below. The compounds were tested at the concentration of about 5 μM and 10 μM and the IC50 was calculated for compounds showing inhibitory activity higher than 50%.

[1] = test system: SIRT1-regulated genes (Pgc1a, Sod1, Sod2) in primary mouse hepatocytes; assay: RT-qPCR analysis of SIRT1-regulated genes in primary murine hepatocytes; type: cell-based; conditions: 24 hrs, 5 nM-500 nM range
Protocol: Cells (AML-12, Hepa-1.6, HEK-293, primary human and murine hepatocytes) are treated with different concentrations of a compound of Formula (I), Formula (Ia), Formula (Ib), Formula (II), or Formula (III), or a pharmaceutically acceptable salt thereof and the gene expression of ACMSD, Pgc1a, Sod1, and Sod2 (MnSOD) is determined using RT-qPCR. Total RNA is extracted from cells and the extracted RNA is treated with DNase and used for reverse transcription (RT).
Primary hepatocytes were prepared from 8-12-week-old C57BL/6J mice by collagenase perfusion method. Mouse livers were perfused with Hank's balanced salt solution (HBSS, KCl, 5.4 mM; KH2PO4, 0.45 mM; NaCl, 138 mM; NaHCO3, 4.2 mM; Na2HPO4, 0.34 mM; glucose, 5.5 mM; HEPES, 1 M; EGTA, 50 mM; CaCl2), 50 mM; pH 7.4). Livers were then washed at a rate of 5 ml/min through the portal vein. After washing, livers were perfused with collagenase (0.025%) solution. Cell viability was assessed by the trypan blue method. Isolated primary hepatocytes were plated with DMEM medium (Gibco) including 10% FCS, 10 units per ml penicillin and HEPES for buffering. The cells were maintained in culture at 37° C. in a humidified atmosphere of 5% CO2/95% air. After 6-8 hrs of attachment, this medium was replaced with media containing different concentrations of an ACMSD inhibitor (i.e., Compound 1 or Compound 17) or with the corresponding concentration of DMSO (as a control). Primary hepatocytes were harvested about 24 hrs later if not indicated differently.
Gene expression of ACMSD and genes known to be regulated by SIRT1, (an enzyme that is strictly NAD^+ dependent) such as Pgc1a, Sod1, Sod2 (MnSOD), were analysed in AML-12 cells, Hepa-1.6 cells and primary murine hepatocytes treated with Compound 1 or 17.
Cells (AML-12, Hepa-1.6, HEK-293, primary human and murine hepatocytes) were treated with different concentrations of Compound 1 or Compound 17. Total RNA was extracted from cells using TRIzol (Invitrogen) according to the manufacturer's instructions. […] 50× diluted cDNA was used for RT-quantitative PCR (RT-qPCR) reactions. […]

[2] = test system: murine primary hepatocytes; assay: NAD+ content in murine primary hepatocytes (HPLC, mass spectrometry); type: cell-based, mouse; conditions: 24 hours
Description: NAD^+ is extracted using acidic extraction method and samples are collected and homogenized. After insoluble protein parts are pelleted, the samples are separated by high-performance liquid chromatography (HPLC) and analyzed by mass-spectrometry. The proteins in the pellet are quantified by Bradford assay and are used for normalization.
NAD^+ was extracted using acidic extraction method. Samples were collected and homogenized in 70% ice-cold perchloric acid (HClO4). After insoluble protein parts were pelleted by adding potassium carbonate (K2CO3), the samples were separated by high-performance liquid chromatography (HPLC) and analyzed by mass-spectrometry. The proteins in the pellet were quantified by Bradford assay and were used for normalization.

[3] = test system: SOD2 activity in primary murine hepatocytes; assay: Modulation of SOD2 activity in murine primary hepatocytes; type: cell-based, mouse
Protocol: Primary hepatocytes or AML-12 cells are lysed and total protein concentration is determined using the Bradford assay. SOD2 activity is determined at indicated times after treatment with a compound of Formula (I), Formula (Ia), Formula (Ib), Formula (II), or Formula (III), or a pharmaceutically acceptable salt thereof, using a SOD Assay Kit. Absorbance is determined and results are expressed in U/ml/mg of protein according to the standard curve and measured protein concentration.
Primary hepatocytes were prepared from 8-12-week-old C57BL/6J mice by collagenase perfusion method. […] Cell viability was assessed by the trypan blue method. […]
Primary hepatocytes or AML-12 cells were then lysed in a 20 mM HEPES buffer (Gibco), pH 7.2, containing 1 mM EGTA (Sigma), 210 mM mannitol (Sigma), and 70 mM sucrose (AMRESCO). Total protein concentration was determined using the Bradford assay (BioRad). SOD-2 activity was determined at indicated times after ACMSD inhibitor treatment by the SOD Assay Kit (Cayman Chemical) according to the manufacturer's instructions. […] Absorbance was determined with a Victor X4 multi-label plate reader (Perkin-Elmer) at 450 nm. Results are expressed in U/ml/mg of protein according to the standard curve and measured protein concentration.

[4] = test system: human primary hepatocytes; assay: NAD+ content in human primary hepatocytes (LCMS/MS); type: cell-based; conditions: 0.5 μM and 5 μM; compound replaced every 24 hrs
Protocol: Primary hepatocytes are treated with different concentrations of a compound of Formula (I), Formula (Ia), Formula (Ib), Formula (II), or Formula (III), or a pharmaceutically acceptable salt thereof, or MEHP (control) after seeding. The compound is replaced every 24 hours, and then cells are directly harvested and lysed to detect NAD^+ content through LC MS/MS (liquid chromatography mass spectrometry/mass spectroscopy).
The NAD^+ concentration or content was determined in human primary hepatocytes treated with Compound 4. Vehicle (NT) was used as a control.
At least three experiments were run treating primary hepatocytes with different concentrations of Compound 4 (0.5 μM and 5 μM) after 48 hrs from seeding. Compound 4 was replaced every 24 hrs, and then cells were directly harvested and lysed with ACN/H2O (ratio 5:1). LCMS/MS was used to detect and measure NAD^+ concentration/content. […] (FIG. 1)
The NAD^+ concentration or content was determined in human primary hepatocytes treated with Compound 1 and MEHP, a known ACMSD inhibitor. MEHP was used as a control.
At least three experiments were run treating primary hepatocytes with different concentrations of Compound 1 (0.5 μM, 5 μM, and 50 μM) after 48 hrs from seeding. Compound 1 was replaced every 24 hrs, and then cells were directly harvested and lysed with ACN/H2O (ratio 5:1). […]

[5] = test system: Caspase 3/7 activity in MDCK cells; assay: Modulation of cisplatin-induced caspase 3/7 activity in MDCK cells; type: cell-based; conditions: p<0.001
Protocol: MDCK cells are cultured in base medium to a final concentration of 10%. Cells are plated into 96 wells and 24 hours after cell plating the medium is changed with fresh medium supplemented with 1% FBS. Cisplatin is then used to induce cell injury. Different concentrations of Formula (I), Formula (Ia), Formula (Ib), Formula (II), or Formula (III), or a pharmaceutically acceptable salt thereof (in DMSO) are added in combination with cisplatin or prior to adding cisplatin. Caspase 3/7 activity (Promega) is determined according to standard procedures using a luminescent signal readout on a plate reader. Each experiment/condition is performed in triplicate. Caspase activity is analyzed as percentage effect normalized to the cisplatin alone and vehicle treated cells.
MDCK cells (MDCK (NBL-2) ATCC® CCL-34™) were cultured in base medium ATCC-formulated Eagle's Minimum Essential Medium, Catalog No. 30-2003 with fetal bovine serum (FBS) to a final concentration of 10%. […]
Caspase 3/7 activity (Promega) was determined according to standard procedures using a luminescent signal readout on a Victor V plate reader (PerkinElmer). […]
Caspase activity was analyzed as percentage effect normalized to the cisplatin alone (100%) and vehicle treated cells as 0% of caspase activity. Data were analyzed by GraphPad Software. […]

hACMSD (ACMSD1), sequence (Q8TDX5 whole entry): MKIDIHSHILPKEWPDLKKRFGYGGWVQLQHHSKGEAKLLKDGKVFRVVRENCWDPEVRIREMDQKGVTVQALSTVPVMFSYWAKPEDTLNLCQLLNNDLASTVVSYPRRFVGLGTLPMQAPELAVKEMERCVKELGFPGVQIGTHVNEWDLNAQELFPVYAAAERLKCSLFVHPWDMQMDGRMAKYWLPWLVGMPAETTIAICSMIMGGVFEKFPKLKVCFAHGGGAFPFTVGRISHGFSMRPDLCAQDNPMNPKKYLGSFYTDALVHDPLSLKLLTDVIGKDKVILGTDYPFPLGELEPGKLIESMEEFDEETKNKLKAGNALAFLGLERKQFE

Row | Compound | IC50 (hACMSD (ACMSD1)) [nM] | further results
1 | O=C(O)c1cccc(CSc2nc(-c3cccs3)cc(=O)[nH]2)c1 [Compound 15] | 760 | 
2 | N#Cc1c(Cl)nc(SCc2cccc(C(=O)O)c2)nc1-c1ccccc1 [Compound 22] | 1100 | 
3 | O=C(O)c1cccc(CSc2nc(-c3ccccc3)cc(=O)[nH]2)c1 [Compound 14] | 740 | 
4 | Cc1nc(SCc2cccc(C(=O)O)c2)[nH]c(=O)c1C#N [Compound 10] | 1700 | 
5 | N#Cc1c(-c2cccs2)nc(SCc2cccc(-c3nn[nH]n3)c2)[nH]c1=O [Compound 17] | 5 | Pgc1a mRNA expression level [1]: dose-dependent increase; Sod1 (Cu-Zn SOD) mRNA expression level [1]: but not Sod1; Sod2 (MnSOD) mRNA expression level [1]: dose-dependent increase; lowest concentration with significant effect on NAD+ levels [2]: ≤ 5 nM; dose at which SOD2 effect reached a maximum [3]: about 50 nM
6 | N#Cc1c(-c2ccc(Cl)cc2)nc(SCc2ccc(C(=O)O)cc2)[nH]c1=O [Compound 8] | 82 | 
7 | N#Cc1c(-c2cccs2)nc(SCc2cccc(C(=O)O)c2)[nH]c1=O [Compound 4] | 12 | ACMSD-1 inhibition, NAD+ content screening (FIG. 1) [4]: inhibits ACMSD-1 enzyme
8 | N#Cc1c(C2CCCCC2)nc(SCc2cccc(C(=O)O)c2)[nH]c1=O [Compound 6] | 77 | 
9 | CCOC(=O)c1cccc(CSc2nc(-c3ccc(C)cc3)c(C#N)c(=O)[nH]2)c1 [Compound 9] | 960 | 
10 | CC(Sc1nc(-c2ccccc2)c(C#N)c(=O)[nH]1)C(=O)O (centres unmarked) [Compound 21] | 1990 | 
11 | N#Cc1c(-c2nccs2)nc(SCc2cccc(C(=O)O)c2)[nH]c1=O [Compound 5] | 49 | 
12 | O=C(O)c1cccc(CSc2nc(-c3ccccc3)c(Cl)c(=O)[nH]2)c1 [Compound 13] | 136 | 
13 | O=C(O)c1cccc(CSc2nc(-c3cccs3)c(Br)c(=O)[nH]2)c1 [Compound 12] | 88 | 
14 | N#Cc1c(-c2ccsc2)nc(SCc2cccc(C(=O)O)c2)[nH]c1=O [Compound 3] | 31 | 
15 | N#Cc1c(-c2cccs2)nc(SCC(=O)Nc2ccccc2O)[nH]c1=O [Compound 23] | 4900 | 
16 | N#Cc1c(-c2cccs2)nc(SCc2cccc(-c3noc(=O)[nH]3)c2)[nH]c1=O [Compound 19] | 25 | 
17 | N#Cc1c(-c2cccs2)nc(SCc2cccc(CC(=O)O)c2)[nH]c1=O [Compound 18] | 10 | caspase activity compared to cisplatin alone ([5]; 100 μM, in combination with cisplatin): decreased caspase activity in significant manner; caspase activity compared to cisplatin alone ([5]; about 30 μM to about 125 μM, one hour prior to cisplatin): decreased caspase activity in significant manner
18 | N#Cc1c(-c2ccco2)nc(SCc2cccc(C(=O)O)c2)[nH]c1=O [Compound 2] | 66 | 
19 | O=C(O)c1cccc(CSc2nc(-c3ccccc3)c(Br)c(=O)[nH]2)c1 [Compound 11] | 71 | 
20 | N#Cc1c(-c2ccncc2)nc(SCc2cccc(C(=O)O)c2)[nH]c1=O [Compound 7] | 82 | 
21 | N#Cc1c(-c2ccccc2)nc(SCc2ccc(C(=O)O)cc2)[nH]c1=O [Compound 16] | 110 | 
